The source of these data is patent US5039797A, “2'-O-(4-benzoyl)benzoyl nucleoside cyclic monophosphate” (Yale University, priority 1989, dated 1991).

Where two headings read alike, the source gives them in different places.

The target of series [1] is Type III cGMP phosphodiesterase. Briefly: Lineweaver-Burke analysis of cGMP hydrolysis by toad photoreceptor rod outer segment membranes. The series is classed as biochemical. As to the method:
FIG. 7 depicts a Lineweaver-Burke analysis of inhibitory effectiveness of 2'-0-(4-benzoyl)benzoyl guanosine 3',5'cyclic monophosphate versus 8-Br-cGMP. The data illustrated are cGMP hydrolysis velocities from toad photoreceptor rod outer segment membranes containing 20 nM Type III cGMP phosphodiesterase in the presence of 100 mM NaCl, 1 mM Tris-HCl, 1 MgCl2,20 μM p[NH]ppG (guanylylimididiphosphate), pH 7.4, and the indicated concentrations of substrate. Open squares indicate control velocities. […] Open circles and open triangles show the effect of 2 μM and 20uM 2'-0-(4-benzoyl)benzoyl guanosine 3',5'cyclic monophosphate respectively (Ki =0.3 μM).

The target in series [2] is T1, Rod Light-Activated PDEase (Bos taurus, UniProt P11541+P23439).
T1 sequence (P11541 1-859): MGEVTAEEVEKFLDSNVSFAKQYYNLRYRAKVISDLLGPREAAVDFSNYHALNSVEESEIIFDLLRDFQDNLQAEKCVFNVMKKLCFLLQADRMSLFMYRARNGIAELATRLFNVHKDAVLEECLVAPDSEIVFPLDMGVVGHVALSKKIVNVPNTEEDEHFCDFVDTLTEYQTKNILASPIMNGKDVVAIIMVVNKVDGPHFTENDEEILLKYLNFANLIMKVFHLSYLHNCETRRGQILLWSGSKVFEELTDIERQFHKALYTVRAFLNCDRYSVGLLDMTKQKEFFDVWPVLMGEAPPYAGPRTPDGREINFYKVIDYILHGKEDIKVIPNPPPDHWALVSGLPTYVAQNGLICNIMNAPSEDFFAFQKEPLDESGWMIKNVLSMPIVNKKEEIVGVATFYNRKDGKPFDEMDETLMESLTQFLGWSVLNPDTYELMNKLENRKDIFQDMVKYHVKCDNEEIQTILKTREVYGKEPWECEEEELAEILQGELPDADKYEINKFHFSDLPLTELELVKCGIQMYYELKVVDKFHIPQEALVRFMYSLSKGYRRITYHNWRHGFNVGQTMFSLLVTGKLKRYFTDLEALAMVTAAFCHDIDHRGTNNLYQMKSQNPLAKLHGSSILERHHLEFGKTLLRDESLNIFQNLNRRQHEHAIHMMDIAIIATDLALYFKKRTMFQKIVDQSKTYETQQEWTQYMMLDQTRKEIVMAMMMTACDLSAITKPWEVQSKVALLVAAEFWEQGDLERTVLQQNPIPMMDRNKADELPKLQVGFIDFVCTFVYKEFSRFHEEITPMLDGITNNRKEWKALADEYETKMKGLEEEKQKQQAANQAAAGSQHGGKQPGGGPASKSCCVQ
T1 sequence (P23439 1-853): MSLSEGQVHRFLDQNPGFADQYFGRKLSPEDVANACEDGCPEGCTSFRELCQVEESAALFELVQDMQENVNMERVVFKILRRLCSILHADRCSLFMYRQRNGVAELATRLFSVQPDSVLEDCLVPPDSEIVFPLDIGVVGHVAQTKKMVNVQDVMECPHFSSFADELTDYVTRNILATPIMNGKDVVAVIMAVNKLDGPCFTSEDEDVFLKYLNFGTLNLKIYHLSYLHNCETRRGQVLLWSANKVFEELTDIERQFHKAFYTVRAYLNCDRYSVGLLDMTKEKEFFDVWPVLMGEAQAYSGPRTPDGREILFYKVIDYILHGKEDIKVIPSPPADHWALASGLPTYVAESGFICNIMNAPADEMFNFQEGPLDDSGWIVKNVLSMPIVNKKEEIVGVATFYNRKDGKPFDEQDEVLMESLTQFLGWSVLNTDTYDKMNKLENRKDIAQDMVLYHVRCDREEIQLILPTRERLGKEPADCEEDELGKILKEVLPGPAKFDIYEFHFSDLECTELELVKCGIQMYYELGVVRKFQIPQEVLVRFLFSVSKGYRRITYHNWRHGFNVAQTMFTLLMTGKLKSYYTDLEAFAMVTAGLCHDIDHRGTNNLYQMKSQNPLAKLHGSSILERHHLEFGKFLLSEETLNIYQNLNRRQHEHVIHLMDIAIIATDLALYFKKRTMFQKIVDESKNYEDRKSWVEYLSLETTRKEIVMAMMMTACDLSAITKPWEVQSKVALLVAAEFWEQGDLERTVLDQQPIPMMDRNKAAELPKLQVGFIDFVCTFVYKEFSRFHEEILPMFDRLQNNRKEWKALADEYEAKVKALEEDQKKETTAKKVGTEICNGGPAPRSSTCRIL

Series [3] has as its system platelet phosphodiesterase. The series can be described thus: Inhibition of platelet phosphodiesterase activity (H3-cAMP hydrolysis). The series is classed as biochemical. Conditions: 5 minutes at 30° C, platelet preparations. As to the method: The IC50 's for 2'-0-(4-benzoyl)benzoyl guanosine 3',5'cyclic monophosphate and 2'-0-(4-benzoyl)benzoyl cyclic adenosine monophosphate were 3 and 10 μM, repsectively. Enzyme activity was assayed by incubation of platelet preparations with H^3 -cAMP for 5 minutes at 30° C. Activity was quenched by boiling the assay tubes for 1 minute. Each sample was run in triplicate. Analysis of H^3 -cAMP was performed according to the procedure of W. J. Thompson, W. L. Terasaki, P. M. Epstein and S. J. Strada, "Assay of Cyclic Nucleotide Phosphodiesterase and Resolution of Multiple Molecular Forms of the Enzyme", Adv. in Cyclic Nucleotide Research, 10, 69-92 (1979).

For a further series, the target named is cGMP PDE. The series can be described thus: Inhibition of cGMP phosphodiesterase in rat bladder. The series is classed as biochemical. The conditions noted are these: read-out: IC50, concentration required to cause 50% inhibition of the enzyme. Here is the method: (§1) 2'-0-(4-benzoyl)benzoyl guanosine 3',5' cyclic monophosphate was assayed as an inhibitor of the cGMP and cAMP phoosphodiesterases in rat bladder. The inhibition of the two PDEases were assayed as per J. N. Wells, C. E. Baird, Y. J. Wu and J. G. Hardman, Biochem. Biophys. Acta, 384, 430, (1975). Expressed as IC50 's, the concentration required to cause 50% inhibition of the enzynme were as follows: […]

The next series deals with cAMP PDE. Briefly: Inhibition of cAMP phosphodiesterase in rat bladder. The series is classed as biochemical. Conditions: read-out: IC50, concentration required to cause 50% inhibition of the enzyme. As to the method: as §1
The nature of series [4]: Storage stability in DMSO. The series is classed as physicochemical. Conditions: stored at -20° C. From the text:
No preservative need be added.

A further series is described as follows: Solubility in solvents. The conditions noted are these: dmso, organic solvent or mixture; in water, ethanol or methanol and DSMO; read-out: upper limit of solubility. The series is classed as physicochemical. As to the method:
The inventive compound favors organic solvents; the upper limit of solubility in water, ethanol or methanol and DSMO is approximately 100 mM. Butanol is also a good solvent, but probably not a very good vehicle.

The test system of another series is intraocular pressure. The series can be described thus: Intraocular pressure in normal rabbits after topical administration. The series is classed as in vivo, rabbit. The text has this:
Non-pigmented, normal (non-water-loaded) rabbits received topical administration to their eyes of 2'-0-(4)-benzoyl benzoyl guanosine 3',5'cyclic monophosphate as prepared according to Example 1.
The mean baseline IOP (intraocular pressure) for the rabbits was 17.5 mm Hg. It should be noted that the data presented in FIG. 1 and FIG. 2 are relative to time zero and normalized relative to the contralateral eye. The contralateral eye received a DMSO control lacking the inhibitor compound. It is believed that this is the most conservative way to represent the data.
Additionally, five rabbits were administered 2'-0-(4-benzoyl)benzoyl guanosine 3',5'cyclic monophosphate (and DMSO) in a sterile saline solution diluted 10- and 100-fold.
FIG. 1 depicts the results of increasing concentrations of 2'-0-(4-benzoyl)benzoyl guanosine 3',5' cyclic monophosphate on the intraocular pressure of normal rabbits. Pressures (±S.E.M) are relative to pressure at time zero and normalized with respect to that of the contralateral eye. Contralateral eyes received solutions containing (DMSO) vehicle without 2'-0-(4-benzoyl)benzoyl guanosine 3',5'cyclic monophosphate. […] Intraocular pressure was measured by applanation tonometry (using an Alcon Applanation Pneumotonograph) after topical application of proparacaine HCl […].

The subject of a further series is eye. The series can be described thus: Ocular tolerability in rabbits after topical administration. The series is classed as in vivo, rabbit.
Where [5] appears, read: 20 nM enzyme, 100 mM NaCl, 20 μM p[NH]ppG, pH 7.4, Ki calculated from slope/Km ratios, read-out: Ki.
Setting [6] is: footnote a: from Zimmerman et al 1985; read-out: Ki for Inhibition; cited from earlier work.
Setting [7] is: footnote b: interpolated from Pannbacker et al 1972 and Chader et al 1974; read-out: Ki for Inhibition; cited from earlier work.

In the case of `Nc1nc(O)c2nc(Br)n([C@@H]3O[C@@H]4COP(=O)(O)O[C@H]4[C@H]3O)c2n1` [Example 8-Br-cGMP, 8-Br-3',5' cyclic guanosine monophosphate, reference compound], the values for the Ki in [1] (setting [5]) and in series [2] (setting [6]) were 6 µM and 48 µM, respectively.

As for `Cn1c(=O)c2[nH]cnc2n(C)c1=O` [Theophyline], the Ki in [2] (setting [7]) was around 360 µM.

Turning to `Nc1nc2c(ncn2[C@@H]2O[C@@H]3COP(O)(=S)O[C@H]3[C@H]2O)c(=O)[nH]1` (some centres unmarked) [(Sp)-cGMP [S]], the Ki in series [2] (setting [6]) is 25 µM.

For the compound `CCCC(=O)O[C@@H]1[C@@H]2OP(=O)(O)OC[C@H]2O[C@H]1n1cnc2c(=O)[nH]c(N)nc21` [O^2,-monobutyryl-cGMP], the Ki in [2] (setting [6]) is 18 µM.

As to `Nc1ncnc2c1ncn2[C@@H]1O[C@@H]2COP(=O)(O)O[C@H]2[C@H]1OC(=O)c1ccc(C(=O)c2ccccc2)cc1` [2'-0-(4-benzoyl) benzoyl-adenosine 3',5' cyclic monophosphate], the IC50 in [3] stood at 10 µM.

Take `COc1ccc(Cc2nccc3cc(OC)c(OC)cc23)cc1OC` [Papaverine]: in series [2] (setting [7]), the Ki was around 50 µM.

For the compound `Nc1nc2c(ncn2[C@@H]2O[C@@H]3COP(=O)(O)O[C@H]3[C@H]2OC(=O)c2ccc(C(=O)c3ccccc3)cc2)c(=O)[nH]1` [2'-0-(4-benzoyl)benzoylguanosine 3',5'cyclic monophosphate], the results for the IC50 (at cGMP PDE; at cAMP PDE; in series [3]) were 0.5 µM, 15.8 µM and 3 µM, respectively. The stability in solution entry in series [4] is on record as “does not degrade”. In addition, the Ki in series [1] (setting [5]) is 0.3 µM; in [1] (Table 1, rod light-activated PDEase, inventive compound, read-out: Ki for Inhibition), 0.3 µM. Also, the solubility in the series “Solubility in solvents” is around 100 mM. For the same compound, the “effect on IOP” value in the series on intraocular pressure (10-fold diluted material (approximately 3 mM), compared with 35 mM in DMSO) was “about the same effect on IOP”; in the series on intraocular pressure (100-fold diluted compound (approximately 0.3 mM)), “essentially no effect”. The values for the conjunctival hyperemia entry with eye (compound (and DMSO) diluted ten-fold with saline solution) and in the series on eye (full concentration (in straight DMSO)) were “reduced” and “slight conjunctival hyperemia”, respectively. The “change in pupil diameter” value with eye (either eye, any concentration, topical) was “No significant change in pupil diameter”. Besides, the “lid erythema or ciliary injection” value in the series on eye (topical) is on record as “no lid erythema or ciliary injection were observed”.

In the case of `Nc1nc2c(ncn2[C@@H]2O[C@@H]3COP(=O)(O)O[C@H]3[C@H]2O)c(=O)[nH]1` [cGMP, 3',5'cyclic guanosine monophosphate], the Km in series [2] (substrate cGMP; from Zimmerman et al 1985; read-out: Km (printed in column Ki for Inhibition); cited from earlier work) is 0.04 mM.

On to `CCCC(=O)Nc1nc2c(ncn2[C@@H]2O[C@@H]3COP(=O)(O)O[C@H]3[C@H]2OC(=O)CCC)c(=O)[nH]1` [N^2,O^2,-dibutyryl-cGMP], for which the Ki in series [2] (setting [6]) is 66 µM.

In the case of `CCCC(=O)Nc1nc2c(ncn2[C@@H]2O[C@@H]3COP(=O)(O)O[C@H]3[C@H]2O)c(=O)[nH]1` [N^2 -monobutyryl-cGMP], the Ki in [2] (setting [6]) is 258 µM.

For `Nc1nc2c(ncn2[C@H]2C[C@@H]3OP(=O)(O)OC[C@H]3O2)c(=O)[nH]1` [2'-Deoxy-cGMP], in series [2] (setting [6]), the Ki is 76 µM.

For `CC(C)Cn1c(=O)n(C)c(=O)c2[nH]cnc21` [Isobutylmethylxanthine], in series [2] (read-out: Ki for Inhibition; footnote b: interpolated from Pannbacker et al 1972 and Chader et al 1974; cited from earlier work), the Ki was around 100 µM.

Turning to `Nc1nc2c(ncn2[C@@H]2O[C@@H]3COP(O)(=S)O[C@H]3[C@H]2O)c(=O)[nH]1` (some centres unmarked) [(Rp)-cGMP [S]], in [2] (setting [6]), the Ki was 90 µM.
